Source: ChEMBL document CHEMBL4422656, “Kallikrein 5 inhibitors identified through structure based drug design in search for a treatment for Netherton Syndrome” (Bioorg Med Chem Lett, 2019)

How the values were obtained:
Kallikrein-5 [1] = target: T1, Kallikrein-5 (Homo sapiens, UniProt Q9Y337); assay: Inhibition of recombinant human FLAG-tagged KLK5 expressed in baculovirus infected sf9 insect cells using (Tos-Gly-Pro-Arg)2[R110].2TFA as substrate measured every 30 secs intervals for 5 mins by Rhodamine110 dye-based fluorescence assay
T1 sequence (Q9Y337 whole entry): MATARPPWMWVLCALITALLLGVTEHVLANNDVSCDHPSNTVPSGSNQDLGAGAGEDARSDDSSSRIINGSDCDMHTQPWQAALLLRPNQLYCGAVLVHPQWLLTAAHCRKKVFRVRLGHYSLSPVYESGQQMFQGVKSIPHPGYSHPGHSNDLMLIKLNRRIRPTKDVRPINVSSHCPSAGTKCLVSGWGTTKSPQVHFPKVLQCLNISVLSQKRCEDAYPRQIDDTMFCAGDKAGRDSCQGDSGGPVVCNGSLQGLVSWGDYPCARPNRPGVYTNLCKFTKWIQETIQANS

Kallikrein-1 = Kallikrein-1 (Homo sapiens, UniProt P06870); assay: Inhibition of recombinant human N-terminal his-tagged KLK1 (19 to 262 residues) expressed in baculovirus infected sf9 insect cells using R110 labelled GSK3162232A as substrate measured every 30 secs intervals for 5 mins by Rhodamine110 dye-based fluorescence assay
Kallikrein-1, sequence (P06870 whole entry, the tested form may be a part): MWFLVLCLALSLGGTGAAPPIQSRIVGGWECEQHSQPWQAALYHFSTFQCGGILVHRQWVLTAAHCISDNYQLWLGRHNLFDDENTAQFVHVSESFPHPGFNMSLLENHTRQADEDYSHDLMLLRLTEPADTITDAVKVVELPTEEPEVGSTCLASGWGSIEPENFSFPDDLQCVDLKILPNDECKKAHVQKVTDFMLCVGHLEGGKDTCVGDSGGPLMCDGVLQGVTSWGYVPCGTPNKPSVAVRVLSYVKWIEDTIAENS

Homo sapiens = species on record: Homo sapiens; assay: Selectivity ratio of IC50 for recombinant human N-terminal his-tagged KLK1 (19 to 262 residues) to IC50 for recombinant human FLAG-tagged KLK5
[2] = Dissociation constant, pKa of phenol group of the compound by UV spectrophotometric analysis; type: physicochemical
Kallikrein-5 [3] = target: T1, Kallikrein-5; assay: Inhibition of KLK5 (unknown origin) using Boc-Val-Pro-Arg-AMC substrate incubated for 15 mins by fluorescence assay
[4] = target: T2, Kallikrein-14 (Homo sapiens) (UniProt Q9P0G3); assay: Inhibition of KLK14 (unknown origin) at 100 uM using Boc-Val-Pro-Arg- AMC substrate incubated for 15 mins by fluorescence assay
T2 sequence (whole entry): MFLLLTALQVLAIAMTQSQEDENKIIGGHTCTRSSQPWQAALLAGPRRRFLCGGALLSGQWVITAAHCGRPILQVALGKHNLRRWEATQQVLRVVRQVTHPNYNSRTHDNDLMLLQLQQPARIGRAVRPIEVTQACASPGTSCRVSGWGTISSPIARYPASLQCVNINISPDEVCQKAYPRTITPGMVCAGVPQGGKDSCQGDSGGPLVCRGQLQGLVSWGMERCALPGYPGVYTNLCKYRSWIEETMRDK

Kallikrein-5 [5] = target: T1, Kallikrein-5; assay: Inhibition of recombinant human KLK5 using S-2288 substrate
Kallikrein-7 = Kallikrein-7 (Homo sapiens, UniProt P49862); assay: Inhibition of recombinant human KLK7 using S-2586 substrate
Kallikrein-7, sequence (P49862 whole entry): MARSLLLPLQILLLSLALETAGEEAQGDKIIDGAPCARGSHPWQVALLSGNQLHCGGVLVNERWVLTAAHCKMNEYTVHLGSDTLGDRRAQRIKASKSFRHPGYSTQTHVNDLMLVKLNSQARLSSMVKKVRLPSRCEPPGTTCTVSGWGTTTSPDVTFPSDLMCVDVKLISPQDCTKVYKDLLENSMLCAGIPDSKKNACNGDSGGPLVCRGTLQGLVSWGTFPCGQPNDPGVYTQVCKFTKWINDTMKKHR

## Cn1cccc(C(=O)Nc2ccc(C(=N)N)cc2)c1=O
Kallikrein-5 [1]
  IC50: 158 µM
Kallikrein-1
  IC50: 501 µM

## N=C(N)c1ccc(NC(=O)c2cccc(O)c2O)cc1
Kallikrein-5 [1]
  IC50: 2.51 µM
Kallikrein-1
  IC50: 3.98 µM

## N=C(N)c1ccc(NC(=O)c2ccccc2O)cc1F
Kallikrein-5 [1]
  IC50: 20 µM
Kallikrein-1
  IC50: 12.6 µM

## N=C(N)c1ccc(NC(=O)C2CCCNC2=O)cc1 (stereo unspecified)
Kallikrein-5 [1]
  IC50: 10 µM
Kallikrein-1
  IC50: 501 µM
Homo sapiens
  Ratio IC50: 100

## N=C(N)c1ccc(NC(=O)c2cccc(Cl)c2O)cc1
Kallikrein-5 [1]
  IC50: 2.51 µM
Kallikrein-1
  IC50: 0.631 µM
[2]
  pKa: 5

## N=C(N)c1ccc(NC(=O)c2ccccc2O)cc1
Kallikrein-5 [1]
  IC50: 6.31 µM
Kallikrein-1
  IC50: 12.6 µM
[2]
  pKa: 6.8

## COc1cccc(C(=O)Nc2ccc(C(=N)N)c(F)c2)c1O
Kallikrein-5 [1]
  IC50: 1 µM
Kallikrein-1
  IC50: 0.251 µM

## O=C1Oc2ccccc2CC1C(=O)Oc1nccc2ccccc12 (stereo unspecified)
Kallikrein-5 [3]
  IC50: 7 µM
[4]
  inhibition: 61%

## Cc1cc(C(=N)N)ccc1NC(=O)c1ccccc1O
Kallikrein-5 [1]
  IC50: 12.6 µM
Kallikrein-1
  IC50: 5.01 µM

## Cn1c(C(=O)Nc2ccc(C(=N)N)cc2)nc2ccccc21
Kallikrein-5 [1]
  IC50: 12.6 µM
Kallikrein-1
  IC50: 200 µM
Homo sapiens
  Ratio IC50: 10

## COc1cccc(C(=O)Nc2ccc(C(=N)N)cc2)c1O
Kallikrein-5 [1]
  IC50: 0.501 µM
Kallikrein-1
  IC50: 0.316 µM
[2]
  pKa: 6.6

## N=C(N)c1ccc(NC(=O)c2ccccc2O)c(F)c1
Kallikrein-5 [1]
  IC50: 2.51 µM
Kallikrein-1
  IC50: 3.16 µM

## N=C(N)c1ccc(NC(=O)N2CCCNC2=O)cc1
Kallikrein-5 [1]
  IC50: 10 µM
Kallikrein-1
  IC50: 631 µM
Homo sapiens
  Ratio IC50: 100

## CCOc1cc2c(=O)oc(-c3ccccc3OC)nc2cc1OC
Kallikrein-5 [5]
  IC50: 0.2 µM
Kallikrein-7
  IC50: 0.048 µM

## CCOc1cccc(C(=O)Nc2ccc(C(=N)N)cc2)c1O
Kallikrein-5 [1]
  IC50: 5.01 µM
Kallikrein-1
  IC50: 0.126 µM

## Cc1cccc(C(=O)Nc2ccc(C(=N)N)cc2)c1O
Kallikrein-5 [1]
  IC50: 7.94 µM
Kallikrein-1
  IC50: 3.16 µM
[2]
  pKa: 6.8

## COc1cccc(C(=O)Nc2ccc(C(=N)N)c(Cl)c2)c1O
Kallikrein-5 [1]
  IC50: 10 µM
Kallikrein-1
  IC50: 1.26 µM
